Source: patent US9789096B2, “Methods and compositions for selective and targeted cancer therapy” (Board of Regents of the University of Texas System, priority 2013, dated 2017)

tested on: H2009; assay: Cell viability dose-response, H2009; format: cell-based, human; conditions: Homo sapiens, NCI-H2009, Table 8; 12-point dose-response starting at 50 micromolar
Experimental: (§1) FIG. 6A. […] Cell viability is plotted vs. compound concentration. Compound was added to cells plated at 15% confluence in 96-well plates in RPMI-1640 media supplemented with 5% Fetal Bovine Serum and 2 mM L-Glutamine. After 4 days of incubation, ATP levels were measured using Cell Titer Glo (Promega). Data are presented as the average of 2 replicates ±SEM.
(§2) Selectivity may be measured by the half maximal inhibitory concentration (IC50), which, as used herein, is a measure of the effectiveness of a compound in killing cells. This quantitative measure indicates how much of a particular compound is needed to kill a particular cell population by half (e.g., as indicated by the amount of ATP). […] The IC50 can be determined by constructing a dose-response curve. The lower the IC50, the higher the potency, and the greater the difference between IC50 values for different cell lines (e.g., sensitive lines vs. insensitive lines, and sensitive lines vs. normal lines) the greater the selectivity. […]
(§3) With this information, we synthesized and tested a series of small molecules derived in conception from the oxalamide and chromone scaffold including N-acyl ureas, as shown in Tables 6-8. Each compound was tested in a 12-point dose-response study starting at 50 micromolar and decreasing in 3-fold increments to sub-nanomolar concentrations, in duplicate. Additionally, one or more additional cell line was tested in the same way.

| SMILES | AC50 [µM] |
| --- | --- |
| O=c1c(C(O)c2ccccc2)coc2cc(OCc3cnn(-c4ccccc4)c3)ccc12 (stereo not drawn) [SW208833-1] | 8.3 |
| O=C(c1ccccc1)c1coc2cc(OCc3cnn(-c4ccccc4)c3)ccc2c1=O [SW208844-1] | 30 |
| O=c1c(Oc2ccccc2)coc2cc(OCc3cnn(-c4ccccc4)c3)ccc12 [SW 208586-1] | 49.5 |
| Cc1oc2cc(OCc3cnn(-c4ccccc4)c3)ccc2c(=O)c1Oc1ccccc1F [SW 208587-1] | 16.5 |
| O=c1c(Oc2ccccc2Cl)coc2cc(OCc3cnn(-c4ccccc4)c3)ccc12 [SW 208589-1] | 4.76 |
| O=c1c(Oc2ccc(F)cc2)coc2cc(OCc3cnn(-c4ccccc4)c3)ccc12 [SW 208591-1] | 16 |
| Cc1ccccc1Oc1coc2cc(OCc3cnn(-c4ccccc4)c3)ccc2c1=O [SW 208593-1] | > 15 |
| O=c1c(Oc2cccc(Cl)c2)coc2cc(OCc3cnn(-c4ccccc4)c3)ccc12 [SW 208594-1] | 16.5 |
| Cc1cccc(Oc2coc3cc(OCc4cnn(-c5ccccc5)c4)ccc3c2=O)c1 [SW 208595-1] | 16.5 |
| COc1ccc(Oc2coc3cc(OCc4cnn(-c5ccccc5)c4)ccc3c2=O)cc1 [SW 208596-1] | 16.5 |
| O=c1ccoc2cc(OCc3cnn(-c4ccccc4)c3)ccc12 [SW 208629-1] | 49.5 |
| c1ccc(-n2cc(COc3ccc4cc(OCc5cnn(-c6ccccc6)c5)ccc4c3)cn2)cc1 [SW 208630-1] | 49.5 |
| O=c1c(-c2ccccc2)coc2cc(OCc3cnn(-c4ccccc4)c3)ccc12 [SW 208631-1] | 49.5 |

same assay, conditions: Homo sapiens, NCI-H2009; Tables 3 and 4; read-out: IC50 (uM) vs indicated non-small cell lung cancer cell line H2009

| SMILES | IC50 [µM] |
| --- | --- |
| Cn1c(NC(=O)c2ccc(C(=O)c3ccccc3)cc2)nc2ccccc21 [SW208770-1] | 3.06 |
| O=C(Nc1nccs1)c1ccc(C(=O)c2ccccc2)cc1 [SW208771-1] | 49.5 |
| O=C(Nc1ncc(Cc2ccccc2)s1)c1ccc(C(=O)c2ccccc2)cc1 [SW208834] | 16.5 |
| O=C(Nc1ncc(-c2ccccc2)s1)c1ccc(C(=O)c2ccccc2)cc1 [SW209017] | 4.95 |
| O=C(Nc1nc(-c2ccccc2)cs1)c1ccc(C(=O)c2ccccc2)cc1 [SW209018] | 14.8 |
| O=C(Nc1nc2ccc(OCCCBr)cc2s1)c1ccc(C(=O)c2ccccc2)cc1 [SW 208235] | 49.5 |
| O=C(Nc1nc2ccc(OCCCCBr)cc2s1)c1ccc(C(=O)c2ccccc2)cc1 [SW 208236] | 49.5 |
| COc1cc2sc(NC(=O)c3ccc(C(=O)c4ccccc4)cc3)nc2cc1Br [SW 208237] | 6.9 |

tested on: H2073; assay: Cell viability dose-response, H2073; format: cell-based, human; conditions: Homo sapiens, NCI-H2073, 12-point dose-response starting at 50 micromolar, 3-fold increments, in duplicate; read-out: toxicity data, H2073
Experimental: as §1, §2, §3

| SMILES | IC50 [µM] |
| --- | --- |
| COc1ccc(CCNC(=O)C(=O)Nc2ccc(OCc3ccc(Br)cc3)cc2)cc1 [SW209048-1] | ≥ 49.5 |
| COc1ccc(CCNC(=O)C(=O)Nc2ccc(COc3ccc(Br)cc3)cc2)cc1 [SW209050-1] | 25.9 |
| COc1ccc(CCNC(=O)C(=O)Nc2ccc(Oc3ccc(Br)cc3)cc2)cc1 [SW209075-1] | 8.07 |

tested on: H2122; assay: Cell viability dose-response, H2122; format: cell-based, human; conditions: Homo sapiens, NCI-H2122, 12-point dose-response starting at 50 micromolar, 3-fold increments, in duplicate; read-out: toxicity data, H2122
Method in brief: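 Viability read as total ATP (Cell Titer Glo) following 4 days' compound exposure, with IC50 derived from dose-response curves. Duplicate 12-point series, top concentration 50 micromolar with 3-fold steps, on cells seeded at 15% confluence in RPMI-1640, 5% FBS, 2 mM L-glutamine.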

| SMILES | IC50 [µM] |
| --- | --- |
| COc1ccc(CCNC(=O)C(=O)Nc2ccc(OCc3ccc(Br)cc3)cc2)cc1 [SW209048-1] | 0.157 |
| COc1ccc(CCNC(=O)C(=O)Nc2ccc(COc3ccc(Br)cc3)cc2)cc1 [SW209050-1] | 0.031 |
| COc1ccc(CCNC(=O)C(=O)Nc2ccc(Oc3ccc(Br)cc3)cc2)cc1 [SW209075-1] | 0.029 |

same assay, conditions: Homo sapiens, NCI-H2122, Table 8; 12-point dose-response starting at 50 micromolar

| SMILES | AC50 [µM] |
| --- | --- |
| O=c1c(C(O)c2ccccc2)coc2cc(OCc3cnn(-c4ccccc4)c3)ccc12 (stereo not drawn) [SW208833-1] | 0.216 |
| O=C(c1ccccc1)c1coc2cc(OCc3cnn(-c4ccccc4)c3)ccc2c1=O [SW208844-1] | 0.864 |
| O=c1c(Oc2ccccc2)coc2cc(OCc3cnn(-c4ccccc4)c3)ccc12 [SW 208586-1] | 0.11 |
| Cc1oc2cc(OCc3cnn(-c4ccccc4)c3)ccc2c(=O)c1Oc1ccccc1F [SW 208587-1] | 0.39 |
| O=c1c(Oc2ccccc2Cl)coc2cc(OCc3cnn(-c4ccccc4)c3)ccc12 [SW 208589-1] | 0.12 |
| O=c1c(Oc2ccc(F)cc2)coc2cc(OCc3cnn(-c4ccccc4)c3)ccc12 [SW 208591-1] | 0.15 |
| Cc1ccccc1Oc1coc2cc(OCc3cnn(-c4ccccc4)c3)ccc2c1=O [SW 208593-1] | 0.11 |
| O=c1c(Oc2cccc(Cl)c2)coc2cc(OCc3cnn(-c4ccccc4)c3)ccc12 [SW 208594-1] | 0.22 |
| Cc1cccc(Oc2coc3cc(OCc4cnn(-c5ccccc5)c4)ccc3c2=O)c1 [SW 208595-1] | 0.2 |
| COc1ccc(Oc2coc3cc(OCc4cnn(-c5ccccc5)c4)ccc3c2=O)cc1 [SW 208596-1] | 0.22 |
| O=c1ccoc2cc(OCc3cnn(-c4ccccc4)c3)ccc12 [SW 208629-1] | ≥ 49.5 |
| c1ccc(-n2cc(COc3ccc4cc(OCc5cnn(-c6ccccc6)c5)ccc4c3)cn2)cc1 [SW 208630-1] | ≥ 49.5 |
| O=c1c(-c2ccccc2)coc2cc(OCc3cnn(-c4ccccc4)c3)ccc12 [SW 208631-1] | 0.28 |

same assay, conditions: Homo sapiens, NCI-H2122, Tables 3 and 4; read-out: IC50 (uM) vs indicated non-small cell lung cancer cell line H2122

| SMILES | IC50 [µM] |
| --- | --- |
| Cn1c(NC(=O)c2ccc(C(=O)c3ccccc3)cc2)nc2ccccc21 [SW208770-1] | 31.4 |
| O=C(Nc1nccs1)c1ccc(C(=O)c2ccccc2)cc1 [SW208771-1] | 32.9 |
| O=C(Nc1ncc(Cc2ccccc2)s1)c1ccc(C(=O)c2ccccc2)cc1 [SW208834] | 3.55 |
| O=C(Nc1ncc(-c2ccccc2)s1)c1ccc(C(=O)c2ccccc2)cc1 [SW209017] | 5.76 |
| O=C(Nc1nc(-c2ccccc2)cs1)c1ccc(C(=O)c2ccccc2)cc1 [SW209018] | 4.73 |
| O=C(Nc1nc2ccc(OCCCBr)cc2s1)c1ccc(C(=O)c2ccccc2)cc1 [SW 208235] | ≥ 49.5 |
| O=C(Nc1nc2ccc(OCCCCBr)cc2s1)c1ccc(C(=O)c2ccccc2)cc1 [SW 208236] | ≥ 49.5 |
| COc1cc2sc(NC(=O)c3ccc(C(=O)c4ccccc4)cc3)nc2cc1Br [SW 208237] | 0.61 |

tested on: HCC44; assay: Cell viability dose-response, HCC44; format: cell-based, human; conditions: Homo sapiens, HCC44, Table 8; 12-point dose-response starting at 50 micromolar
Experimental: as §1, §2, §3

| SMILES | AC50 [µM] |
| --- | --- |
| O=c1c(C(O)c2ccccc2)coc2cc(OCc3cnn(-c4ccccc4)c3)ccc12 (stereo not drawn) [SW208833-1] | 9.86 |
| O=C(c1ccccc1)c1coc2cc(OCc3cnn(-c4ccccc4)c3)ccc2c1=O [SW208844-1] | 23.7 |
| O=c1c(Oc2ccccc2)coc2cc(OCc3cnn(-c4ccccc4)c3)ccc12 [SW 208586-1] | 0.15 |
| Cc1oc2cc(OCc3cnn(-c4ccccc4)c3)ccc2c(=O)c1Oc1ccccc1F [SW 208587-1] | 49.5 |
| O=c1c(Oc2ccccc2Cl)coc2cc(OCc3cnn(-c4ccccc4)c3)ccc12 [SW 208589-1] | 49.5 |
| O=c1c(Oc2ccc(F)cc2)coc2cc(OCc3cnn(-c4ccccc4)c3)ccc12 [SW 208591-1] | 0.07 |
| Cc1ccccc1Oc1coc2cc(OCc3cnn(-c4ccccc4)c3)ccc2c1=O [SW 208593-1] | > 15 |
| O=c1c(Oc2cccc(Cl)c2)coc2cc(OCc3cnn(-c4ccccc4)c3)ccc12 [SW 208594-1] | 0.08 |
| Cc1cccc(Oc2coc3cc(OCc4cnn(-c5ccccc5)c4)ccc3c2=O)c1 [SW 208595-1] | 0.1 |
| COc1ccc(Oc2coc3cc(OCc4cnn(-c5ccccc5)c4)ccc3c2=O)cc1 [SW 208596-1] | 16.5 |
| O=c1ccoc2cc(OCc3cnn(-c4ccccc4)c3)ccc12 [SW 208629-1] | 49.5 |
| c1ccc(-n2cc(COc3ccc4cc(OCc5cnn(-c6ccccc6)c5)ccc4c3)cn2)cc1 [SW 208630-1] | 49.5 |
| O=c1c(-c2ccccc2)coc2cc(OCc3cnn(-c4ccccc4)c3)ccc12 [SW 208631-1] | 49.5 |

same assay, conditions: Homo sapiens, HCC44, Tables 3 and 4; read-out: IC50 (uM) vs indicated non-small cell lung cancer cell line HCC44

| SMILES | IC50 [µM] |
| --- | --- |
| Cn1c(NC(=O)c2ccc(C(=O)c3ccccc3)cc2)nc2ccccc21 [SW208770-1] | 12.7 |
| O=C(Nc1nccs1)c1ccc(C(=O)c2ccccc2)cc1 [SW208771-1] | 8.43 |
| O=C(Nc1ncc(Cc2ccccc2)s1)c1ccc(C(=O)c2ccccc2)cc1 [SW208834] | 49.5 |
| O=C(Nc1ncc(-c2ccccc2)s1)c1ccc(C(=O)c2ccccc2)cc1 [SW209017] | 49.5 |
| O=C(Nc1nc(-c2ccccc2)cs1)c1ccc(C(=O)c2ccccc2)cc1 [SW209018] | 49.5 |
| O=C(Nc1nc2ccc(OCCCBr)cc2s1)c1ccc(C(=O)c2ccccc2)cc1 [SW 208235] | 49.5 |
| O=C(Nc1nc2ccc(OCCCCBr)cc2s1)c1ccc(C(=O)c2ccccc2)cc1 [SW 208236] | 49.5 |
| COc1cc2sc(NC(=O)c3ccc(C(=O)c4ccccc4)cc3)nc2cc1Br [SW 208237] | 6.5 |
